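96-well plates; 48 h exposure; 5 concentrations. Endpoints by linear interpolation between flanking doses. Not reached: highest tested concentration assigned. Abbreviation: GI50, concentration required for 50% inhibition of growth.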 Active and inactive are the calls of the source. No stated cut-off is given here; in the data, active = GI50 up to about 1.1 µM and inactive = higher.
What was measured:
Assay in all cases: growth of human tumour cells (NCI), 48 h
DU-145 = system: DU-145
HOP-92 = system: HOP-92
UO-31 = system: UO-31
COLO 205 = system: COLO 205
CAKI-1 = system: CAKI-1
NCI-H23 = system: NCI-H23
SK-OV-3 = system: SK-OV-3
SW-620 = system: SW-620
HCT-15 = system: HCT-15
HL-60 = system: HL-60
SK-MEL-28 = system: SK-MEL-28
Malme-3M = system: Malme-3M
RXF 393 = system: RXF 393
OVCAR-5 = system: OVCAR-5
NCI-H460 = system: NCI-H460
SK-MEL-5 = system: SK-MEL-5
BT-549 = system: BT-549
NCI-H226 = system: NCI-H226
NCI-H522 = system: NCI-H522

Structure (SMILES)	GI50 (DU-145)	GI50 (HOP-92)	GI50 (UO-31)	GI50 (COLO 205)	GI50 (CAKI-1)	GI50 (NCI-H23)	GI50 (SK-OV-3)	GI50 (SW-620)	GI50 (HCT-15) [µM]	GI50 (HL-60)	GI50 (SK-MEL-28)	GI50 (Malme-3M)	GI50 (RXF 393)	GI50 (OVCAR-5)	GI50 (NCI-H460)	GI50 (SK-MEL-5)	GI50 (BT-549)	GI50 (NCI-H226)	GI50 (NCI-H522)
C[N+]1(C)CCC(C#N)(c2ccccc2)CC1	> 100 µM (inactive)	> 100 µM (inactive)	> 100 µM (inactive)	> 100 µM (inactive)	> 100 µM (inactive)	> 100 µM (inactive)	> 100 µM (inactive)	> 100 µM (inactive)	> 100	> 100 µM (inactive)	> 100 µM (inactive)	> 100 µM (inactive)	> 100 µM (inactive)	> 100 µM (inactive)	> 100 µM (inactive)	> 100 µM (inactive)			
CC(=O)C1(O)CCC2(O)C3(O)CC=C4CC(O)CCC4(C)C3CC(OC(=O)c3ccc(O)cc3)C12C (centres undefined)	> 100 µM (inactive)	> 100 µM (inactive)	> 100 µM (inactive)	> 100 µM (inactive)	> 100 µM (inactive)	> 100 µM (inactive)	> 100 µM (inactive)	> 100 µM (inactive)	> 100	> 100 µM (inactive)	> 100 µM (inactive)			> 100 µM (inactive)	> 100 µM (inactive)	> 100 µM (inactive)	> 100 µM (inactive)	80.2 µM (inactive)	> 100 µM (inactive)
COC(=O)C1CCCCCCCCCCC12SCCCS2 (centres undefined)	16.7 µM (inactive)	19.4 µM (inactive)	18.9 µM (inactive)	18.6 µM (inactive)	26.3 µM (inactive)	34.8 µM (inactive)	49.5 µM (inactive)	27.2 µM (inactive)	26.7		18.4 µM (inactive)	20.3 µM (inactive)	19 µM (inactive)	16.8 µM (inactive)	37.2 µM (inactive)	18.7 µM (inactive)		18.6 µM (inactive)	17.2 µM (inactive)
COc1ccc(C(=O)N(C(=O)N2CCN(c3ccccc3)CC2)S(=O)(=O)c2ccccc2)cc1	27.2 µM (inactive)	25.4 µM (inactive)	13.6 µM (inactive)	17.9 µM (inactive)	20.3 µM (inactive)	24.1 µM (inactive)	86.5 µM (inactive)	37.4 µM (inactive)	27.8	22.1 µM (inactive)	30.8 µM (inactive)	28.2 µM (inactive)		24.7 µM (inactive)	32.4 µM (inactive)	14.5 µM (inactive)	33.3 µM (inactive)	22.2 µM (inactive)	15.4 µM (inactive)
C=C(C)[C@@H]1CC[C@]2(C)CC[C@]3(C)[C@H](CC[C@@H]4[C@@]5(C)CC[C@H](OC(=O)c6ccccc6)C(C)(C)[C@@H]5CC[C@]43C)[C@@H]12	> 100 µM (inactive)	> 100 µM (inactive)	> 100 µM (inactive)	> 100 µM (inactive)	> 100 µM (inactive)	> 100 µM (inactive)	> 100 µM (inactive)	> 100 µM (inactive)	> 100	> 100 µM (inactive)	> 100 µM (inactive)	> 100 µM (inactive)		> 100 µM (inactive)	> 100 µM (inactive)	> 100 µM (inactive)	> 100 µM (inactive)	> 100 µM (inactive)	> 100 µM (inactive)
O=CC12CCCN1CCC2	> 100 µM (inactive)		> 100 µM (inactive)	> 100 µM (inactive)	> 100 µM (inactive)	> 100 µM (inactive)	> 100 µM (inactive)	> 100 µM (inactive)	> 100		> 100 µM (inactive)	> 100 µM (inactive)	> 100 µM (inactive)	> 100 µM (inactive)	> 100 µM (inactive)	> 100 µM (inactive)	> 100 µM (inactive)	76.4 µM (inactive)	> 100 µM (inactive)
CC(=O)OC12c3ccccc3-c3ccccc3C1C1C(=O)N(C)C(=O)C12Cl (centres undefined)	> 10 µM (inactive)	> 10 µM (inactive)	> 10 µM (inactive)	> 10 µM (inactive)	> 10 µM (inactive)	> 10 µM (inactive)	> 10 µM (inactive)	> 10 µM (inactive)	> 10	> 10 µM (inactive)	> 10 µM (inactive)	> 10 µM (inactive)	> 10 µM (inactive)	> 10 µM (inactive)	> 10 µM (inactive)	> 10 µM (inactive)		> 10 µM (inactive)	> 10 µM (inactive)
COC(CC1(OC)OC(=O)C=C1N)OC (centres undefined)		> 100 µM (inactive)	> 100 µM (inactive)	> 100 µM (inactive)		> 100 µM (inactive)	> 100 µM (inactive)	> 100 µM (inactive)	> 100	> 100 µM (inactive)	> 100 µM (inactive)	> 100 µM (inactive)		> 100 µM (inactive)	> 100 µM (inactive)	> 100 µM (inactive)		> 100 µM (inactive)	> 100 µM (inactive)
COc1ccccc1-c1cc(=O)c2ccccc2n1C1CC1	3.5 µM (inactive)	1.78 µM (inactive)	3.85 µM (inactive)	1.57 µM (inactive)	3.49 µM (inactive)	4.99 µM (inactive)	6.73 µM (inactive)	3.13 µM (inactive)	2.55	13.7 µM (inactive)			1.84 µM (inactive)	2.72 µM (inactive)	2.74 µM (inactive)	4.52 µM (inactive)		2.42 µM (inactive)	0.865 µM (active)
CCCCCCC(O)C/C=C/CCCCCC/C(C(=O)OC)=C(/O)C(=O)OCC (centres undefined)		> 100 µM (inactive)	> 100 µM (inactive)	> 100 µM (inactive)	> 100 µM (inactive)	> 100 µM (inactive)	> 100 µM (inactive)	> 100 µM (inactive)	> 100	67.1 µM (inactive)	> 100 µM (inactive)	> 100 µM (inactive)		> 100 µM (inactive)	> 100 µM (inactive)	> 100 µM (inactive)		> 100 µM (inactive)	85.1 µM (inactive)
CC(=N/NC(N)=S)/C(C)=N/NC(N)=S	> 100 µM (inactive)		> 100 µM (inactive)	> 100 µM (inactive)		> 100 µM (inactive)		> 100 µM (inactive)	> 100	> 100 µM (inactive)	> 100 µM (inactive)	> 100 µM (inactive)	> 100 µM (inactive)	> 100 µM (inactive)	> 100 µM (inactive)	> 100 µM (inactive)	> 100 µM (inactive)	> 100 µM (inactive)	> 100 µM (inactive)
O=C1NC(c2cccc(OCc3ccccc3)c2)Nc2ccccc21 (centres undefined)	0.172 µM (active)		4.55 µM (inactive)	0.191 µM (active)	0.628 µM (active)	0.424 µM (active)	0.307 µM (active)	0.0938 µM (active)	0.0805	< 0.0184 µM (active)	0.309 µM (active)	0.0897 µM (active)	0.11 µM (active)	0.374 µM (active)	0.208 µM (active)	0.0326 µM (active)		0.274 µM (active)	0.213 µM (active)
CNc1ncccc1Nc1cc(=O)n2c3cccnc3n(C)c2c1	> 100 µM (inactive)		> 100 µM (inactive)	> 100 µM (inactive)	94.6 µM (inactive)	74.6 µM (inactive)	> 100 µM (inactive)	> 100 µM (inactive)	> 100		> 100 µM (inactive)		20.6 µM (inactive)	> 100 µM (inactive)	> 100 µM (inactive)	> 100 µM (inactive)	> 100 µM (inactive)	> 100 µM (inactive)	61 µM (inactive)
COc1c2c(cc3oc(=O)ccc13)OC(C)(C)C=C2 [XANTHOXYLETIN]	20.4 µM (inactive)	7.29 µM (inactive)	25.8 µM (inactive)	25.4 µM (inactive)	2.26 µM (inactive)	23.6 µM (inactive)	40.5 µM (inactive)	26.1 µM (inactive)	23.6	15.8 µM (inactive)	32.6 µM (inactive)	30.1 µM (inactive)			24.2 µM (inactive)	21.8 µM (inactive)	25.6 µM (inactive)	41.1 µM (inactive)	21 µM (inactive)
Nc1ccccc1OCc1cc(=O)c(OCc2ccccc2)co1	47.8 µM (inactive)	0.202 µM (active)		12.6 µM (inactive)	8.65 µM (inactive)	39.6 µM (inactive)	23.6 µM (inactive)	80.7 µM (inactive)	24.2	14.9 µM (inactive)	> 100 µM (inactive)	34.6 µM (inactive)		37.4 µM (inactive)	7.62 µM (inactive)	18.8 µM (inactive)	33.5 µM (inactive)		
C/C(=N/NC(=S)Nc1cccc(Cl)c1)c1cccc(/C(C)=N\NC(=S)Nc2cccc(Cl)c2)n1		3.65 µM (inactive)	1.67 µM (inactive)	1.35 µM (inactive)	2.86 µM (inactive)	3.69 µM (inactive)	4.22 µM (inactive)	3.25 µM (inactive)	2.49	1.22 µM (inactive)	> 100 µM (inactive)	1.43 µM (inactive)	2.38 µM (inactive)	6.43 µM (inactive)	2.01 µM (inactive)	2.03 µM (inactive)	0.94 µM (active)	0.998 µM (active)	3.03 µM (inactive)
C=CCOC(=O)C1C2OC3(C(C(=O)OC)=C2C(=O)OC)c2ccccc2CCC13 (centres undefined)	> 10 µM (inactive)		> 10 µM (inactive)	> 10 µM (inactive)	> 10 µM (inactive)	> 10 µM (inactive)	> 10 µM (inactive)	> 10 µM (inactive)	> 10	> 10 µM (inactive)	> 10 µM (inactive)	> 10 µM (inactive)	> 10 µM (inactive)	> 10 µM (inactive)	> 10 µM (inactive)	> 10 µM (inactive)	> 10 µM (inactive)	> 10 µM (inactive)	

From ChEMBL document CHEMBL1201862, “PubChem BioAssay data set” (2004)
